Measured values taken from patent publication US20240390340A1 (INCYTE CORPORATION, priority 2023, published 2024).
pIC50: −log10 of the molar value.

Tests used:
KRAS G12D = KRAS G12D (Homo sapiens, UniProt P01116, G12D); assay: GDP-GTP exchange assay (bodipy-GDP/GppNHp, SOS1), KRAS G12D; format: biochemical; conditions: bodipy-loaded KRAS G12D 2.5 nM, 4 h pre-incubation; value for the most potent isomer quoted for certain compounds; read-out: G12D (KRAS G12D exchange assay IC50)
Experimental: (§1) The inhibitor potency of the exemplified compounds was determined in a fluorescence based guanine nucleotide exchange assay, which measures the exchange of bodipy-GDP (fluorescently labeled GOP) for GppNHp (Non-hydrolyzable GTP analog) to generate the active state of KRAS in the presence of SOS1 (guanine nucleotide exchange factor). Inhibitors were serially diluted in DMSO and a volume of 0.1 μL was transferred to the wells of a black low volume 384-well plate. 5 μL/well volume of bodipy-loaded KRAS G12D diluted to 2.5 nM in assay buffer (25 mM Hepes pH 7.5, 50 mM NaCl, 10 mM MgCl2 and 0.01% Brij-35) was added to the plate and pre-incubated with inhibitor for 4 h at r.t. Appropriate controls (enzyme with no inhibitor or with a G12D inhibitor) were included on the plate. The exchange was initiated by the addition of a 5 μL/well volume containing 1 mM GppNHp and 300 nM SOS1 in assay buffer. The 10 μL/well reaction concentration of the bodipy-loaded KRAS G12D, GppNHp, and SOS1 were 2.5 nM, 500 μM, and 150 nM, respectively. The reaction plates were incubated at r.t. for 2 h, a time estimated for complete GDP-GTP exchange in the absence of inhibitor. For the KRAS G12V mutant, similar guanine nucleotide exchange assays were used with 2.5 nM as final concentration for the bodipy loaded KRAS proteins and 3 h incubation after adding GppNHp-SOS1 mixture. A cyclic peptide described to selectively bind G12D mutant (Sakamoto et al., BBRC 484.3 (2017), 605-611) or internal compounds with confirmed binding were used as positive controls in the assay plates. Fluorescence intensities were measured on a PheraStar plate reader instrument (BMG Labtech) with excitation at 485 nm and emission at 520 nm.
(§2) Either GraphPad prism or Genedata Screener SmartFit was used to analyze the data. The IC50 values were derived by fitting the data to a four parameter logistic equation producing a sigmoidal dose-response curve with a variable Hill coefficient.
(§3) The symbol “†” indicates IC50≤100 nM, “††” indicates IC50>100 nM but ≤1 μM; and “†††” indicates IC50 is >1 μM but ≤5 μM, “††††” indicates IC50 is >5 μM but ≤10 μM. “NA” indicates IC50 not available.

KRAS G12V = KRAS G12V (Homo sapiens, UniProt P01116, G12V); assay: GDP-GTP exchange assay (bodipy-GDP/GppNHp, SOS1), KRAS G12V; format: biochemical; conditions: KRAS G12V mutant; value for the most potent isomer quoted for certain compounds; read-out: G12V (KRAS G12V exchange assay IC50)
Experimental: as §1, §2, §3

KRAS G12V, sequence (P01116 1-188 isoform P01116-2 G12V): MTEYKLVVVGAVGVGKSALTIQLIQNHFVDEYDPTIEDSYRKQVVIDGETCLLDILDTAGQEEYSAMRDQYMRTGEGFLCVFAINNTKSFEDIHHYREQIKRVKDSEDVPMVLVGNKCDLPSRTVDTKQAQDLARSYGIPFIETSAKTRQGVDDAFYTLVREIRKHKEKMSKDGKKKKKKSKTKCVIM
KRAS G12D, sequence (P01116 1-188 isoform P01116-2 G12D): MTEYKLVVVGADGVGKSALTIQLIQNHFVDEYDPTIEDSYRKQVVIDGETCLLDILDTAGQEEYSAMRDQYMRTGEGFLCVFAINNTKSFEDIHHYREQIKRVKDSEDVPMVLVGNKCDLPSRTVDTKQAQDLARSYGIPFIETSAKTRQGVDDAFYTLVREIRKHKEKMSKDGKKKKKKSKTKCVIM

pIC50 (KRAS G12D) | pIC50 (KRAS G12V) | Structure (SMILES)
≥ 7.00 | 6.00 to 7.00 | Cc1nc2c(F)c(-c3cccc(Cl)c3Cl)c(CCC#N)cc2c2c1cc([C@H]1C[C@H](OCc3ncco3)CN1C(=O)C1CC1)n2[C@H]1[C@H]2CN[C@@H]1C2 [Example 104]
≥ 7.00 | ≥ 7.00 | Cc1nc2c(F)c(-c3cccc(Cl)c3Cl)c(CCC#N)cc2c2c1cc([C@H]1C[C@H](Oc3ccccc3F)CN1C(=O)C1CC1)n2[C@H]1[C@H]2CN[C@@H]1C2 [Example 119]
≥ 7.00 | ≥ 7.00 | COc1cccc(O[C@H]2C[C@H](c3cc4c(C)nc5c(F)c(-c6cccc(Cl)c6Cl)c(CCC#N)cc5c4n3[C@H]3C4CNC3C4)N(C(=O)C3CC3)C2)n1 (some centres unmarked) [Example 199]
≥ 7.00 | ≥ 7.00 | Cc1nc2c(F)c(-c3cccc(Cl)c3Cl)c(CCC#N)cc2c2c1cc([C@H]1C[C@H](Oc3ccnc(N4CC(OC(F)F)C4)c3)CN1C(=O)C1CC1)n2[C@H]1[C@H]2CN[C@@H]1C2 [Example 368]
≥ 7.00 | ≥ 7.00 | COC1CN(c2ccnc(O[C@H]3C[C@H](c4cc5c(C)nc6c(F)c(-c7cccc(Cl)c7Cl)c(CCC#N)cc6c5n4[C@H]4[C@H]5CN[C@@H]4C5)N(C(=O)C4CC4)C3)c2)C1 [Example 367]
≥ 7.00 | ≥ 7.00 | COCCn1cc(O[C@H]2C[C@H](c3cc4c(C)nc5c(F)c(-c6cccc(Cl)c6Cl)c(CCC#N)cc5c4n3[C@H]3[C@H]4CN[C@@H]3C4)N(C(=O)C3CC3)C2)cn1 [Example 441]
6.00 to 7.00 | ≥ 7.00 | Cc1nc2c(F)c(-c3cccc(Cl)c3Cl)c(CCC#N)cc2c2c1cc([C@H]1C[C@H](Oc3cccc(C#N)c3)[C@@H](C)N1C(=O)C1CC1)n2[C@H]1[C@H]2CN[C@@H]1C2 [Example 213]
≥ 7.00 | ≥ 7.00 | Cc1nc2c(F)c(-c3cccc(Cl)c3Cl)c(CCC#N)cc2c2c1cc([C@H]1C[C@H](OCc3ccccn3)[C@@H](C)N1C(=O)C1CC1)n2[C@H]1[C@H]2CN[C@@H]1C2 [Example 243]
≥ 7.00 | ≥ 7.00 | Cc1nc2c(F)c(-c3cccc(Cl)c3Cl)c(CCC#N)cc2c2c1cc([C@H]1C[C@H](OCc3cccnc3C(F)(F)F)CN1C(=O)C1CC1)n2[C@H]1[C@H]2CN[C@@H]1C2 [Example 268]
≥ 7.00 | ≥ 7.00 | Cc1ncccc1O[C@H]1C[C@H](c2cc3c(C)nc4c(F)c(-c5cccc(Cl)c5Cl)c(CCC#N)cc4c3n2[C@H]2[C@H]3CN[C@@H]2C3)N(C(=O)C2CC2)C1 [Example 129]
≥ 7.00 | ≥ 7.00 | [2H]C([2H])(O[C@H]1C[C@H](c2cc3c(C(C)O)nc4c(F)c(-c5cccc(Cl)c5Cl)c(CCC#N)cc4c3n2[C@H]2[C@H]3CN[C@@H]2C3)N(C(=O)C2CC2)C1)c1nscc1C (some centres unmarked) [Example 237]
≥ 7.00 | ≥ 7.00 | Cc1nnn([C@H]2C[C@H](c3cc4c(C)nc5c(F)c(-c6cccc(Cl)c6Cl)c(CCC#N)cc5c4n3[C@H]3[C@H]4CN[C@@H]3C4)N(C(=O)C3CC3)C2)c1CO [Example 327]
≥ 7.00 | ≥ 7.00 | COc1ccc(CO[C@H]2C[C@H](c3cc4c(C)nc5c(F)c(-c6cccc(Cl)c6Cl)c(CCC#N)cc5c4n3[C@H]3[C@H]4CN[C@@H]3C4)N(C(=O)C3CC3)C2)c(C#N)c1 [Example 252]
≥ 7.00 | ≥ 7.00 | COC(=O)c1cnn([C@H]2C[C@H](c3cc4c(C)nc5c(F)c(-c6cccc(Cl)c6Cl)c(CCC#N)cc5c4n3[C@H]3[C@H]4CN[C@@H]3C4)N(C(=O)C3CC3)C2)c1 [Example 353]
≥ 7.00 | ≥ 7.00 | Cc1nc2c(F)c(-c3cccc(Cl)c3Cl)c(CCC#N)cc2c2c1cc([C@H]1C[C@H](n3cc(C4(C)CCC4)nn3)CN1C(=O)C1CC1)n2[C@H]1[C@H]2CN[C@@H]1C2 [Example 384]
≥ 7.00 | ≥ 7.00 | Cc1nc2c(F)c(-c3cccc(Cl)c3Cl)c(CCC#N)cc2c2c1cc([C@H]1C[C@H](OCC3CCCCC3)CN1C(=O)C1CC1)n2[C@H]1[C@H]2CN[C@@H]1C2 [Example 86]
≥ 7.00 | ≥ 7.00 | Cc1nc2c(F)c(-c3cccc(Cl)c3Cl)c(CCC#N)cc2c2c1cc([C@H]1C[C@H](OCc3cncn3C)CN1C(=O)C1CC1)n2[C@H]1[C@H]2CN[C@@H]1C2 [Example 108]

pIC50 (KRAS G12D) | pIC50 (KRAS G12V) | Structure (SMILES)
≥ 7.00 | ≥ 7.00 | Cc1ncccc1CO[C@H]1C[C@H](c2cc3c(C)nc4c(F)c(-c5cccc(Cl)c5Cl)c(CCC#N)cc4c3n2[C@H]2[C@H]3CN[C@@H]2C3)N(C(=O)C2CC2)C1 [Example 139]
≥ 7.00 | ≥ 7.00 | Cc1nc2c(F)c(-c3cccc(Cl)c3Cl)c(CCC#N)cc2c2c1cc([C@H]1C[C@H](OCc3ccn(C)n3)CN1C(=O)C1CC1)n2[C@H]1[C@H]2CN[C@@H]1C2 [Example 101]
≥ 7.00 | ≥ 7.00 | COc1ncc(C(F)(F)F)cc1O[C@H]1C[C@H](c2cc3c(C)nc4c(F)c(-c5cccc(Cl)c5Cl)c(CCC#N)cc4c3n2[C@H]2[C@H]3CN[C@@H]2C3)N(C(=O)C2CC2)C1 [Example 451]
≥ 7.00 | ≥ 7.00 | Cc1nc2c(F)c(-c3cccc(Cl)c3Cl)c(CCC#N)cc2c2c1cc([C@H]1C[C@H](Oc3cnn(CC(F)F)c3C)CN1C(=O)C1CC1)n2[C@H]1[C@H]2CN[C@@H]1C2 [Example 410]
≥ 7.00 | ≥ 7.00 | COc1ncc(F)cc1O[C@H]1C[C@H](c2cc3c(C)nc4c(F)c(-c5cccc(Cl)c5Cl)c(CCC#N)cc4c3n2[C@H]2[C@H]3CN[C@@H]2C3)N(C(=O)C2CC2)C1 [Example 447]
≥ 7.00 | ≥ 7.00 | Cc1nc2c(F)c(-c3cccc(Cl)c3Cl)c(CCC#N)cc2c2c1cc([C@H]1C[C@H](Oc3cccnc3N)CN1C(=O)C1CC1)n2[C@H]1[C@H]2CN[C@@H]1C2 [Example 288]
≥ 7.00 | ≥ 7.00 | Cc1csnc1C(C)O[C@H]1C[C@H](c2cc3c(C(C)O)nc4c(F)c(-c5cccc(Cl)c5Cl)c(CCC#N)cc4c3n2[C@H]2[C@H]3CN[C@@H]2C3)N(C(=O)C2CC2)C1 (some centres unmarked) [Example 334]
≥ 7.00 | ≥ 7.00 | Cc1nc(C)n([C@H]2C[C@H](c3cc4c(C)nc5c(F)c(-c6cccc(Cl)c6Cl)c(CCC#N)cc5c4n3[C@H]3[C@H]4CN[C@@H]3C4)N(C(=O)C3CC3)C2)n1 [Example 350]
≥ 7.00 | ≥ 7.00 | Cc1nc2c(F)c(-c3cccc(Cl)c3Cl)c(CCC#N)cc2c2c1cc([C@H]1C[C@H](n3cc([C@H](C)O)nn3)CN1C(=O)C1CC1)n2[C@H]1C2CNC1C2 (some centres unmarked) [Example 184]
≥ 7.00 | ≥ 7.00 | Cc1nc2c(F)c(-c3cccc(Cl)c3Cl)c(CCC#N)cc2c2c1cc([C@H]1C[C@H](n3cnc(C4CC4)n3)CN1C(=O)C1CC1)n2[C@H]1[C@H]2CN[C@@H]1C2 [Example 278]
≥ 7.00 | ≥ 7.00 | Cc1nc2c(F)c(-c3cccc(Cl)c3Cl)c(CCC#N)cc2c2c1cc([C@H]1C[C@H](N3C(=O)COC3=O)CN1C(=O)C1CC1)n2[C@H]1[C@H]2CN[C@@H]1C2 [Example 320]
≥ 7.00 | ≥ 7.00 | Cc1nc2c(F)c(-c3cccc(Cl)c3Cl)c(CCC#N)cc2c2c1cc([C@H]1C[C@H](n3cnc(C4CCC4)n3)CN1C(=O)C1CC1)n2[C@H]1[C@H]2CN[C@@H]1C2 [Example 347]
≥ 7.00 | ≥ 7.00 | Cc1nc2c(F)c(-c3cccc(Cl)c3Cl)c(CCC#N)cc2c2c1cc([C@H]1C[C@H](Oc3cnn4ccccc34)CN1C(=O)C1CC1)n2[C@H]1[C@H]2CN[C@@H]1C2 [Example 194]
≥ 7.00 | ≥ 7.00 | Cc1nc2c(F)c(-c3cccc(Cl)c3Cl)c(CCC#N)cc2c2c1cc([C@H]1C[C@H](Oc3ccnc(C#N)c3)CN1C(=O)C1CC1)n2[C@H]1[C@H]2CN[C@@H]1C2 [Example 198]
6.00 to 7.00 | ≥ 7.00 | Cc1nc2c(F)c(-c3cccc(Cl)c3Cl)c(CCC#N)cc2c2c1cc([C@H]1C[C@H](n3nncc3Cc3ccccc3)CN1C(=O)C1CC1)n2[C@H]1[C@H]2CN[C@@H]1C2 [Example 160]
≥ 7.00 | ≥ 7.00 | Cc1nc2c(F)c(-c3cccc(Cl)c3Cl)c(CCC#N)cc2c2c1cc([C@H]1C[C@H](Oc3cc(N4CC(C(F)F)C4)ccn3)CN1C(=O)C1CC1)n2[C@H]1[C@H]2CN[C@@H]1C2 [Example 371]
≥ 7.00 | ≥ 7.00 | Cc1cc(C(C)O[C@H]2C[C@H](c3cc4c(C(C)O)nc5c(F)c(-c6cccc(Cl)c6Cl)c(CCC#N)cc5c4n3[C@H]3[C@H]4CN[C@@H]3C4)N(C(=O)C3CC3)C2)ns1 (some centres unmarked) [Example 335]
